Test results taken from paper PMC9395490, “An open-label, crossover study to compare different formulations and evaluate effect of food on pharmacokinetics of pimitespib in patients with advanced solid tumors” (Investigational New Drugs, 2022).
Where two headings read alike, the source gives them in different places.

How the values were obtained:
[1] = test system: patients with advanced GIST; set-up: method as in doi:10.1200/JCO.2021.39.15_suppl.11524; conditions: phase III, cited from earlier work
[2] = PK evaluation period, Cohort 1: single dose of Formulation A vs Formulation B under fasting conditions (crossover); format: in vivo, patients with advanced solid tumors
Protocol: This clinical, pharmacological, multicenter study was conducted in Japan and consisted of two cohorts (Cohorts 1 and 2) and two periods. The patients were first assigned to the pharmacokinetic evaluation period to investigate PK parameters of each formulation (Cohort 1) or the effect of food (Cohort 2), and then to the consecutive administration period (Supplementary Fig. 1).
In both cohorts, a randomized cross-over design was used.
For fasting conditions, patients were required to fast at least 10 h before dosing and at least 4 h after dosing and abstain from drinking water 1 h before and after administration, excluding the water consumed at the time of dosing. For fed conditions, patients were required to fast for at least 10 h before dosing and at least 4 h after dosing (except for the scheduled study meal) and abstain from drinking for 1 h before and after administration, except for drinking water. The study drug was administered within 30 min of completing the meal. The study meal was a high-fat (approximately 50% of the total caloric content of the meal) and high-calorie (572–715 kcal) meal considering the weight ratio of Japanese to American individuals. The meal’s nutritional value was adjusted based on the body weight of Japanese patients according to the US FDA standard guidance. It was recommended that study drug dosing be done with 100–200 (usually 150) mL of water.
Patients underwent hematologic, coagulation, biochemical laboratory examinations, urinalysis, electrocardiogram, ophthalmologic examination, and vital sign and body weight assessments. Blood collection occurred before pimitespib administration and at 0.5, 1, 2, 4, 6, 8, 10, 24, and 48 h after administration at the first and second doses.
For Cohort 1 analyses, the values of the natural log-transformed PK parameters (Cmax, AUClast, AUCinf, terminal elimination rate constant [λz], and mean residence time) were analyzed using analysis of variance (ANOVA), using Phoenix® WinNonlin® Ver. 8.1. […] The time to maximum plasma concentration (tmax) was not transformed and was analyzed using Wilcoxon’s signed-rank test, conducted using EXSUS version 10.0.3. The significance level was set at 5%.

[3] = test system: patients with advanced solid tumors; set-up: method as in PMID 30679388; conditions: phase I; cited from earlier work
[4] = test system: patients with advanced GIST; set-up: method as in PMID 31536852; conditions: phase II, advanced GIST failed or intolerant to imatinib, sunitinib, regorafenib; cited from earlier work
[5] = PK evaluation period, Cohort 2: food effect, single dose of Formulation A under fed vs fasting conditions (crossover); format: in vivo, patients with advanced solid tumors
Protocol: For fasting conditions, patients were required to fast at least 10 h before dosing and at least 4 h after dosing and abstain from drinking water 1 h before and after administration, excluding the water consumed at the time of dosing. For fed conditions, patients were required to fast for at least 10 h before dosing and at least 4 h after dosing (except for the scheduled study meal) and abstain from drinking for 1 h before and after administration, except for drinking water. The study drug was administered within 30 min of completing the meal. The study meal was a high-fat (approximately 50% of the total caloric content of the meal) and high-calorie (572–715 kcal) meal considering the weight ratio of Japanese to American individuals. […]
For the analyses related to Cohort 2, the ANOVA model included treatment (fasting and fed conditions), treatment period, and treatment sequence as fixed effects, and patients nested within treatment sequence as a random effect. The GMR and 90% CI of the fed condition to the fasting condition were calculated.

## CCc1cc(C(N)=O)ccc1-n1nc(C(C)C)c2c(-n3cnc(-c4cnn(C)c4)c3)ccnc21 [pimitespib, Pimitespib]
[1]; advanced GIST refractory or intolerant to imatinib, sunitinib, regorafenib
  median PFS: 2.8 months
[1]; pimitespib vs placebo
  hazard ratio (HR) for PFS: 0.51
[2]
  inter-subject CV% for AUCinf: 54.4%
  inter-subject CV% for AUClast: 52.6%
  inter-subject CV% for Cmax: 63.8%
  intra-subject CV% for AUCinf: 24.9%
  intra-subject CV% for AUClast: 24.4%
  intra-subject CV% for Cmax: 28.5%
[3]
  patients with GIST achieving a partial response: one
  patients with non-small cell lung cancer achieving a partial response: two
[4]
  median PFS: 4.4 months
[5]
  AUC under fed conditions, fold higher than under fasting conditions: ~1.6 fold
  Cmax under fed conditions, fold higher than under fasting conditions: approximately 1.9 fold
